Here are results for 25 compounds from patent publication US20140242606A1, “PROBE FOR iFRET AND USE THEREOF” (KOREA RESEARCH INSTITUTE OF BIOSCIENCE AND BIOTECHNOLOGY, priority 2011, published 2014).

The conditions of series [1]: value used for calculation; cited from earlier work.
Series [2] can be described thus: Fluorescence characterization of fluorescent molecules (excitation and emission wavelengths). The class given is physicochemical. The settings on record: fluorescent molecule, Table 1. An excerpt: 1-Naphthylethylenediamine of Chemical Formula I can be effectively detected by LED (light-emitting diode), and used as a fluorescent probe. In addition, because this compound has an excitation wavelength of 340 nm to 380 nm and an emission wavelength of 400 nm to 600 nm, it has longer emission wavelength than the known fluorophores, and therefore, it can be detected as a fluorescent molecule distinct from the cellular autofluorescence.
The excitation and emission wavelengths of the fluorescent molecules of the present invention, that is, the compounds represented by Chemical Formulae I to XXII are described in Table 1, and graphs showing the fluorescent characteristics thereof are given in FIGS. 3 to 15.

Series [3] concerns the target T1, streptavidin (Streptomyces avidinii, UniProt P22629). Briefly: iFRET detection of streptavidin with biotin-conjugated probes. The class given is binding. The settings on record: UV irradiation at 280 nm. From the text:
The results of detecting streptavidin using Compounds of Chemical Formulae XXV to XXVIII as probes for iFRET are shown in FIGS. 23 to 26.
(§1) As in FIG. 23 showing the result of using the compound of Chemical Formula XXV as a probe for iFRET, the probe itself emitted low fluorescence (blue line) at 430 nm by UV irradiation at 280 nm; the protein (streptavidin) emitted fluorescence (green line) at 340 nm by UV irradiation at 280 nm.
As in FIG. 24 showing the result of using the compound of Chemical Formula XXVI as a fluorescent probe, the probe itself emitted low fluorescence (blue line) at 460 nm by UV irradiation at 280 nm; the protein (streptavidin) emitted fluorescence (green line) at 340 nm by UV irradiation at 280. […] Further, it was confirmed that the fluorescence increasing rate at the above emission wavelength was 600% or more, indicating production of effective iFRET signals.
Because the compound of Chemical Formula XXVII emitted fluorescence at the longer wavelength than the known iFRET probe, signal-to-noise ratio is […] during real-time cell imaging, thereby providing more clear images.
In order to examine target specificity of the probe having Chemical Formula XXVIII, the probe was exposed to BSA to examine whether iFRET signals were produced by binding of the probe to BSA. […] Therefore, it was confirmed that the biotin-conjugated iFRET fluorescent probe of the present invention selectively binds to streptavidin to produce iFRET signals.

The nature of series [4]: Quantum yield measurement. The class given is physicochemical. Conditions: 0.1 M pH 10.0 phosphate buffer, standard 4-methyl-umbelliferone. The method, then: (§2) The quantum yield of each compound was measured in 0.1 M pH 10.0 phosphate buffer. 4-methyl-umbelliferone (ΦF 0.63) was used as a standard material, tryptophan (ΦF=0.12) was used as an FRET donor to calculate the quantum yield. FRET efficiency was calculated based on the results measured in PBS buffer at pH 7.4, and fluorescence was measured using an LS55 fluorescence spectrometer manufactured by Perkin Elmer.

Series [5] deals with T1, streptavidin. Briefly: FRET efficiency and Forster distance of biotin-conjugated probes. The class given is binding. The settings on record: between iFRET probe and streptavidin. The method, then: as §2
Series [6] in a line: Fluorescence of the iFRET probe alone. It counts as physicochemical. Conditions: for fluorescence emission wavelength of probe alone: excitation / UV irradiation at 280 nm.
Description: After excitation at 260, 280, 340, and 360 nm, the emitted fluorescence spectra were examined. […]
as §1
As in FIG. 24 showing the result of using the compound of Chemical Formula XXVI as a fluorescent probe, the probe itself emitted low fluorescence (blue line) at 460 nm by UV irradiation at 280 nm; the protein (streptavidin) emitted fluorescence (green line) at 340 nm by UV irradiation at 280. […] Further, it was confirmed that the fluorescence increasing rate at the above emission wavelength was 600% or more, indicating production of effective iFRET signals. […]

Molecules are shown by their SMILES.

T1 sequence (P22629 25-183): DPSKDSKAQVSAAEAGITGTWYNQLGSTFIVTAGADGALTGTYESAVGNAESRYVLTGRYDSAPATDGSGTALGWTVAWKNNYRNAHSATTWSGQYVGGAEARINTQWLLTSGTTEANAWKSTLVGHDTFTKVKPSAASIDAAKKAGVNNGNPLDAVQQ

As for `Cc1cc(=O)oc2cc(O)ccc12` [4-methyl-umbelliferone], in series [1], the “quantum yield ΦF of standard material / FRET donor” value is 0.63.
Consider `NCCNc1cccc2ccccc12` [Chemical Formula I, 1-naphthylethylenediamine], for which, in series [2], the “Emission wavelength (nm)” value turned out to be 430 nm and the “Excitation wavelength (nm)” value turned out to be 340 nm.
The like results for `COC(=O)C1=CN(C)C=CC1(C)C` [Chemical Formula II, methyl 1,4,4-trimethyl-1,4-dihydropyridine-3-carboxylate] were, in that order, 450 nm and 360 nm.
On the same counts, the results for `COC(=O)C1=CN(C)C=C(C(=O)O)C1` [Chemical Formula IV, 5-(methoxycarbonyl)-1-methyl-1,4-dihydropyridine-3-carboxylic acid] are 480 nm and 390-400 nm.
The like results for `O=C(O)/C=C/c1cc2ccc(O)cc2oc1=O` [Chemical Formula IX, 3-(7-hydroxy-2-oxo-2H-chromen-3-yl)acrylic acid] were, in that order, 480 nm and 370-380 nm.
As for `COC(=O)C1=C(C)N(Cc2ccccc2)C=CC1(C)C` [Chemical Formula V, methyl 1-benzyl-2,4,4-trimethyl-1,4-dihydropyridine-3-carboxylate], in series [2], the “Emission wavelength (nm)” value is listed as 430 nm and the “Excitation wavelength (nm)” value came to 330 nm.
Turning to `COC(=O)C1=CN(C)C=C(C(=O)OC)C1C=C(C)C` [Chemical Formula VI, dimethyl 1-methyl-4-(2-methyl-1-propenyl)-1,4-dihydropyridine-3,5-dicarboxylate], in series [2], the “Emission wavelength (nm)” value stood at 450 nm and the “Excitation wavelength (nm)” value stood at 390 nm.
The like results for `COC(=O)C1=CN(C)C=C(C(=O)O)C1C=C(C)C` (centres unmarked) [Chemical Formula VII, 5-(methoxycarbonyl)-1-methyl-4-(2-methyl-1-propenyl)-1,4-dihydropyridine-3-carboxylic acid] were, in that order, 450 nm and 380 nm.
The like results for `COC(=O)CC1C(C(=O)OC)=CN(C)C=C1C(=O)OC` [Chemical Formula VIII, dimethyl 4-(2-methoxy-2-oxoethyl)-1-methyl-1,4-dihydropyridine-3,5-dicarboxylate] were, in that order, 450 nm and 370 nm.
On the same counts, the results for `COC(=O)/C=C/c1cc2ccc(O)cc2oc1=O` [Chemical Formula X, methyl 3-(7-hydroxy-2-oxo-2H-chromen-3-yl)acrylate] are 510 nm and 430 nm.
Turning to `CC(C)(C)OC(=O)NCCNC(=O)/C=C/c1cc2ccc(O)cc2oc1=O` [Chemical Formula XI, tert-butyl 2-(3-(7-hydroxy-2-oxo-2H-chromen-3-yl)acrylamido)ethylcarbamate], in series [2], the “Emission wavelength (nm)” value was 480 nm and the “Excitation wavelength (nm)” value was 380-420 nm.
Regarding `Cc1ccc2cc(C(=O)O)c(=O)oc2c1` [Chemical Formula XIII], in series [2], the “Emission wavelength (nm)” value is 450 nm and the “Excitation wavelength (nm)” value was found to be 400 nm.
The like results for `Cc1cc(=O)oc2cc(O)ccc12` [Chemical Formula XIV] were, in that order, 450 nm and 370 nm.
On the same counts, the results for `CN(C)c1cccc2c(S(=O)(=O)Cl)cccc12` [Chemical Formula XIX] are 520 nm and 340 nm.
Consider `CCN(CC)c1ccc2cc(C(=O)n3ccnc3)c(=O)oc2c1` [Chemical Formula XVIII], for which, in series [2], the “Emission wavelength (nm)” value was 470 nm and the “Excitation wavelength (nm)” value is 400 nm.
On to `COc1ccc2cc(C(=O)O)c(=O)oc2c1` [Chemical Formula XVI], for which, in series [2], the “Emission wavelength (nm)” value is on record as 390 nm and the “Excitation wavelength (nm)” value was found to be 330 nm.
For the compound `CC(C)(C)OC(=O)Nc1ccc2cc(/C=C/C(=O)O)ccc2c1` [Chemical Formula XV], in series [2], the “Emission wavelength (nm)” value turned out to be 450 nm and the “Excitation wavelength (nm)” value came to 330 nm.
`CCOC(=O)Cc1cc(=O)oc2cc(N(C)C)ccc12` [Chemical Formula XX, ethyl 2-(7-(dimethylamino)-2-oxo-2H-chromen-4-yl)acetate]: in series [2], the “Emission wavelength (nm)” value is recorded as 490 nm and the “Excitation wavelength (nm)” value is reported as 370 nm.
On the same counts, the results for `CN(C)c1ccc2c(CC(=O)O)cc(=O)oc2c1` [Chemical Formula XXI, 2-(7-(dimethylamino)-2-oxo-2H-chromen-4-yl)acetic acid] are 480 nm and 370 nm.
For `CCOC(=O)Cc1cc(=O)oc2cc(N(CC)CC)ccc12` [Chemical Formula XXII, ethyl 2-(7-(diethylamino)-2-oxo-2H-chromen-4-yl)acetate], in series [2], the “Emission wavelength (nm)” value is 450 nm and the “Excitation wavelength (nm)” value was found to be 370 nm.
Regarding `O=C(CCCC[C@@H]1SC[C@@H]2NC(=O)N[C@@H]21)NCCNc1cccc2ccccc12` [Chemical Formula XXV, N-biotinyl N′-(1-naphthyl)ethylenediamine], the “fluorescence / iFRET signal of mixture of probe and streptavidin” value (from here on “fluorescence / iFRET signal”) in series [3] is recorded as “increased fluorescence at 430 nm”. The “Quantum yield (ΦF)” value in series [4] amounted to 0.7. Also, the “R0 (Fōrster distance)” value in series [5] was 1.837 nm. For the same compound, in series [6], the “fluorescence emission wavelength of probe alone” value was 430 nm.
Take `O=C(CCCCC1SCC2NC(=O)NC21)NCCNC(=O)Cc1cc(=O)oc2cc(O)ccc12` (centres unmarked) [Chemical Formula XXVI, N-(7-hydroxycoumarin-4-acetyl)-N′-(biotinyl)ethylenediamine]: in series [3], the “fluorescence / iFRET signal” value is listed as “increased fluorescence at 460 nm”. Moreover, in series [3] (mixture of probe and streptavidin), the “fluorescence increasing rate at emission wavelength 460 nm” value is given as not below 600%. Further, the “Quantum yield (ΦF)” value in series [4] was 0.7. Besides, the “R0 (Fōrster distance)” value in series [5] came to 1.675 nm. In series [6], the “fluorescence emission wavelength of probe alone” value came out at 460 nm.
With `O=C(/C=C/c1cc2ccc(O)cc2oc1=O)NCCNC(=O)CCCC[C@@H]1SC[C@@H]2NC(=O)N[C@@H]21` [Chemical Formula XXVII, N-((E)-7-hydroxycoumarin-3-acryl)-N′-(biotinyl)ethylenediamide], the “fluorescence / iFRET signal” value in series [3] is “increased fluorescence at 480 nm”. Further, the “Quantum yield (ΦF)” value in series [4] turned out to be 0.105. The “R0 (Fōrster distance)” value in series [5] is reported as 2.161 nm.
Turning to `COC(=O)CCC(NC(=O)C(CC(=O)OC)NC(=O)CCC(=O)NCCNc1cccc2ccccc12)C(=O)N[C@@H](C(=O)NC(CC(=O)OC)C(=O)C(F)(F)F)C(C)C` (stereo partly drawn) [Chemical Formula XXXII, N-(1-naphthyl)ethyleneamide-4-butaneamide-Asp(CO2Me)-L-Glu(CO2Me)-L-Val-Asp(CO2Me)-(ketone)-CF3], the “fluorescence emission wavelength of probe” value in series [6] turned out to be 430 nm.
Consider `N[C@@H](Cc1c[nH]c2ccccc12)C(=O)O` [tryptophan], for which, in series [1], the “quantum yield ΦF of standard material / FRET donor” value is given as 0.12.
